Where a name gives a salt, the structure may show the parent alone.

What is called EC50 is the concentration needed to bring the measured effect to its halfway point. Read a high EC50 as weaker potency.

Type in all cases: cell-based
The subject of one assay is MV-4-11 cells. Description: Anti proliferative activity in MV-4-11 cells by Cell Titer Glo (Promega) assay. The following applies: Homo sapiens, MV4-11, 72 h, 3 days, CellTiter-Glo. The method, boiled down:
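MV-4-11 cells in complete DMEM were exposed to compound for 3 days in triplicate, final DMSO ≤0.3%. Viability was read by CellTiter-Glo ATP luminescence, and % inhibition was taken relative to the DMSO control. EC50 was derived from concentration-response curves.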
In general terms: ATP-based viability assays read luminescence as a measure of living cells.

In another assay the test system is SK-MEL-5 cells. Briefly: Anti proliferative activity in SK-MEL-5 cells by Cell Titer Glo (Promega) assay. The following applies: Homo sapiens, retreatment on Day 4, terminated on day 8, CellTiter-Glo. Summed up: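 SK-MEL-5 cells treated with 9-point 3-fold dilution series, re-dosed on day 4, read on day 8 by CellTiter-Glo luminescence. EC50 derived from percent proliferation inhibition versus concentration.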

The next assay has as its target T1, SMARCA2 (Homo sapiens, UniProt P51531).
T1 construct: endogenous in cells; host or cells: MV-4-11 (CRL-9591)
Description: SMARCA2 degradation in MV-4-11 cells by Western blot. The following applies: MV4-11, 16 h, at 100 nM, vs DMSO, read-out: Percent degradation SMARCA2. The procedure: (§1) Example-P3: Determination of SMARCA2 and SMARCA4 Degradation in MV-4-11 Cells by Western Blot
(§2) MV-4-11 (CRL-9591™) cells were plated in 6 well plates using complete Iscove's Modified Dulbecco's Medium. On the third day, compounds of present invention were added to cells from 10 mM stocks made in DMSO (Sigma Cat no. D2650). Each concentration of compound was tested with DMSO not exceeding final percentage of 0.1 in the cells. Cells were incubated with the compound for 16 hours followed by harvesting with 1×RIPA lysis buffer (Thermo Fischer, catalogue number #89900) containing protease inhibitor cocktail (Sigma catalogue number #P-8340). Equal amount of protein was loaded on SDS PAGE gel for electrophoresis. Western blot was carried out for detection of either SMARCA2 (Cell signalling technologies, catalogue number #11966) or SMARCA4 antibody (Cell signalling technologies, catalogue number #52251). Beta-Tubulin antibody (Cell signalling technologies, catalogue number #86298) was used as loading control. Percentage of SMARCA2 or SMARCA4 degradation was calculated using formula % Degradation=100−(normalized band intensity in treated sample/normalized band intensity in DMSO sample)*100. Here, “ND” refers to Not determined.
In general terms: In western blotting, separated proteins are transferred to a membrane and probed.

A further assay concerns the target T2, SMARCA4 (Homo sapiens, UniProt P51532).
T2 construct: endogenous in cells; host or cells: MV-4-11 (CRL-9591)
Description: SMARCA4 degradation in MV-4-11 cells by Western blot. The settings on record: MV4-11, at 100 nM, 16 hours, vs DMSO, read-out: Percent degradation SMARCA4. The procedure: as §1, §2

T1 sequence (P51531 whole entry): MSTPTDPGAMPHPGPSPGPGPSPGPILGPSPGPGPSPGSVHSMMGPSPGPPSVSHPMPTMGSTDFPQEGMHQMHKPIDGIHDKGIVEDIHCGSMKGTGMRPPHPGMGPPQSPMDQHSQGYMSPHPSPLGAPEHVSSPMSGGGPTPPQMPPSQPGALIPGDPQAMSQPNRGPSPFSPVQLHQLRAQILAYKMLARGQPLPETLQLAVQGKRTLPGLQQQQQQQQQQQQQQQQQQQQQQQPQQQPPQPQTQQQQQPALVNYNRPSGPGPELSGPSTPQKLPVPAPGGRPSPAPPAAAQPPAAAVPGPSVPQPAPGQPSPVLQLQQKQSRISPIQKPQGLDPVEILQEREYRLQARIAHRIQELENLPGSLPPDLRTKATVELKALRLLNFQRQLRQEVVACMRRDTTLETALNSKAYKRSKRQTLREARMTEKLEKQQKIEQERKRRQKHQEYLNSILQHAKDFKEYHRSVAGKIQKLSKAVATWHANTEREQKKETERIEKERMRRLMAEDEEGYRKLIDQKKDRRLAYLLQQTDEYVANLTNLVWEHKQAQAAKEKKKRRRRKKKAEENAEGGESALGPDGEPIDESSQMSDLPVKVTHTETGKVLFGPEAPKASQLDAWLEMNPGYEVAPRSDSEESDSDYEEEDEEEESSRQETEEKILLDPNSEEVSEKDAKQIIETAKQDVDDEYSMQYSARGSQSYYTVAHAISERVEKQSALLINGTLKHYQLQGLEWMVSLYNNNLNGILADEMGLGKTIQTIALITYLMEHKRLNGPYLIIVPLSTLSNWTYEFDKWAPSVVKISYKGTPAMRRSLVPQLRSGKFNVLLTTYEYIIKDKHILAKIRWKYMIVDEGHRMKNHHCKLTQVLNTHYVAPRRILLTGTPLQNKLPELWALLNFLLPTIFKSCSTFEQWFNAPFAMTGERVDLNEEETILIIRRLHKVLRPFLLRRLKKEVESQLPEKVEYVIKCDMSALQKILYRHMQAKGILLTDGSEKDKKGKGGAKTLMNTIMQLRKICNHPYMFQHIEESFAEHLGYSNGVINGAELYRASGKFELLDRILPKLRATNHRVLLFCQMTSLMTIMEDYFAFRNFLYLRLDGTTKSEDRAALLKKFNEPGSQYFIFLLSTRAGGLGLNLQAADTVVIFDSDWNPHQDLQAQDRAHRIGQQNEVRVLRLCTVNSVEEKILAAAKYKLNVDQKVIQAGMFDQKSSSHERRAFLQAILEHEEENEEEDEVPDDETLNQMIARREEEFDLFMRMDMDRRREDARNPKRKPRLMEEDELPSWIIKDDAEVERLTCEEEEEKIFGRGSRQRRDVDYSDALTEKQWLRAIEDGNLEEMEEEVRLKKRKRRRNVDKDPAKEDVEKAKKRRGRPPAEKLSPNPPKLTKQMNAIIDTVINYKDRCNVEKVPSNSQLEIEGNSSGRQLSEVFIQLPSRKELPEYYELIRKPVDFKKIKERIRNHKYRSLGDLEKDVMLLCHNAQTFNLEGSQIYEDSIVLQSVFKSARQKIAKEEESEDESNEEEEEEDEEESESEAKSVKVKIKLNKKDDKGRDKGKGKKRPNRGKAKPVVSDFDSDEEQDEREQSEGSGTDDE
T2 sequence (P51532 whole entry): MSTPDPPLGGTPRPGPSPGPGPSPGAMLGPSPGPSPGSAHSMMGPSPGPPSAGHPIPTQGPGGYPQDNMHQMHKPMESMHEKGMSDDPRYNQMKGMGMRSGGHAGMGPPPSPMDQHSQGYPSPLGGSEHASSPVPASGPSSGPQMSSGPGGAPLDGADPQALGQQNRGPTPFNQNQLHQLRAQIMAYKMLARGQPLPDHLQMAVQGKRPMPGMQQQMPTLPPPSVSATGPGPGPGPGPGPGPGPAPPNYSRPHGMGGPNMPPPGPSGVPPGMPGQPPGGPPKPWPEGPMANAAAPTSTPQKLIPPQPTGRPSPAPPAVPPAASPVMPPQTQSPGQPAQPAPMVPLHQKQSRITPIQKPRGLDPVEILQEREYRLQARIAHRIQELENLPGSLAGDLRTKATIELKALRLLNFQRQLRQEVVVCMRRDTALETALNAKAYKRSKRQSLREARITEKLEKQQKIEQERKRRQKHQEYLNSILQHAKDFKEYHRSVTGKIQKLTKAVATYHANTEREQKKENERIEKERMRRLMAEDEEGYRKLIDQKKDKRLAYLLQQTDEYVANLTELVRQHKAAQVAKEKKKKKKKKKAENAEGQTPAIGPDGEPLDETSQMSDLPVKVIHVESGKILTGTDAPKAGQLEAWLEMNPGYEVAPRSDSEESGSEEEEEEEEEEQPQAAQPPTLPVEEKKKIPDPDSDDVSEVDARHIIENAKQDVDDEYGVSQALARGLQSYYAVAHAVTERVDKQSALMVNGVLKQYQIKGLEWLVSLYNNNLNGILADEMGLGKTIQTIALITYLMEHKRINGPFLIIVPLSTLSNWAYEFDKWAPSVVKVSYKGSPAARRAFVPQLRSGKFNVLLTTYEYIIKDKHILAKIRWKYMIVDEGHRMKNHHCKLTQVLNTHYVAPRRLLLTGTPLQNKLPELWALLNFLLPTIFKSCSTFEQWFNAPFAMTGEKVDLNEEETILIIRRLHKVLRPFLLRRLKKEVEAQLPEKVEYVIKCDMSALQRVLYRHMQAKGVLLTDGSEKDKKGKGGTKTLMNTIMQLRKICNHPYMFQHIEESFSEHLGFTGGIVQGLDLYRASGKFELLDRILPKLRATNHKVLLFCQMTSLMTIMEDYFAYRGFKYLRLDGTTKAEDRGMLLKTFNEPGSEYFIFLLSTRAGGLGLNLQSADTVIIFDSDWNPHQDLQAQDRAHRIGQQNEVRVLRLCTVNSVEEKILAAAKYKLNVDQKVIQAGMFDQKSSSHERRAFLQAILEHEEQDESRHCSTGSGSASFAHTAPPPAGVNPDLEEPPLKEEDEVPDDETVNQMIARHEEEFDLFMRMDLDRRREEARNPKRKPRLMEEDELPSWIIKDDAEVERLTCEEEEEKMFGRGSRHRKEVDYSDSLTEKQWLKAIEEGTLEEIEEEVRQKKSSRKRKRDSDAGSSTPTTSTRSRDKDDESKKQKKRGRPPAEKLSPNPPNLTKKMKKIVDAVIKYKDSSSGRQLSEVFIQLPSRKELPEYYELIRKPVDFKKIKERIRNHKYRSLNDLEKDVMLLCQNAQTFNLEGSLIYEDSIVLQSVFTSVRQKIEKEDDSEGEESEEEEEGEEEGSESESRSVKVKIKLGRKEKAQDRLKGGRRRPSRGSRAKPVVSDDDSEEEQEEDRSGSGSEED

For `CC(C)n1c2cc(N3CCC(N4CCC(c5ccc(NC6CCC(=O)NC6=O)cc5F)CC4)CC3)ccc2n2c3cccc(Cl)c3c(=O)nc12` (centres unmarked) [Compound 29, 3-((4-(1′-(4-chloro-7-isopropyl-5-oxo-5,7-dihydrobenzo[4,5]imidazo[1,2-a]quinazolin-9-yl)-[1,4′-bipiperidin]-4-yl)-3-fluorophenyl)amino)piperidine-2,6-dione-HCl salt], the EC50 in the assay with MV-4-11 cells and with SK-MEL-5 cells was < 10 nM in each case. The inhibition at 0.1 µM on SMARCA2 came out at 96%; at SMARCA4, 97%.
On to `O=C1CCC(N2Cc3cc(N4CCN(C5CCN(c6ccc7c(c6)n(C6CCCC6)c6nc(=O)c8c(Cl)cccc8n76)CC5)CC4)ccc3C2=O)C(=O)N1` (centres unmarked) [Compound 30, 3-(5-(4-(1-(4-chloro-7-cyclopentyl-5-oxo-5,7-dihydrobenzo[4,5]imidazo[1,2-a]quinazolin-9-yl)piperidin-4-yl)piperazin-1-yl)-1-oxoisoindolin-2-yl)piperidine-2,6-dione-HCl salt], for which the half-maximal effective concentration (EC50) is > 100 nM in the assay on MV-4-11 cells and < 10 nM in the assay with SK-MEL-5 cells. The figures for the inhibition at 0.1 µM on SMARCA2 and on SMARCA4 were 90% and 64%, respectively.
In the same order, the values of `Cn1c2cc(N3CCC(N4CCN(c5ccc(C6CCC(=O)NC6=O)cc5)CC4)CC3)ccc2n2c3cccc(N)c3c(=O)nc12` (centres unmarked) [Compound 32, 3-(4-(4-(1-(4-amino-7-methyl-5-oxo-5,7-dihydrobenzo[4,5]imidazo[1,2-a]quinazolin-9-yl)piperidin-4-yl)piperazin-1-yl)phenyl)piperidine-2,6-dione-HCl salt] are > 100 nM, > 100 nM, 59% and 38%.
The corresponding values for `O=C1CCC(Nc2ccc(N3CCN(C4CCN(c5ccc6c(c5)n(C5CCCC5)c5nc(=O)c7c(Cl)cccc7n65)CC4)CC3)c(F)c2)C(=O)N1` (centres unmarked) [Compound 35, 3-((4-(4-(1-(4-chloro-7-cyclopentyl-5-oxo-5,7-dihydrobenzo[4,5]imidazo[1,2-a]quinazolin-9-yl)piperidin-4-yl)piperazin-1-y1)-3-fluorophenyl)amino)piperidine-2,6-dione-TFA salt] are > 100 nM, < 10 nM, 98% and 91%.
In the same order, the values of `Cn1c2cc(N3CCC(N4CCC(c5ccc(NC6CCC(=O)NC6=O)cc5F)CC4)CC3)ccc2n2c3cccc(Cl)c3c(=O)nc12` (centres unmarked) [Compound 36, 3-((4-(1′-(4-chloro-7-methyl-5-oxo-5,7-dihydrobenzo[4,5]imidazo[1,2-a]quinazolin-9-yl)-[1,4′-bipiperidin]-4-yl)-3-fluorophenyl)amino)piperidine-2,6-dione] are > 100 nM, < 10 nM, 99% and 97%.

Values taken from US20260297094A1, “Tetracyclic Compounds as SMARCA2 and/or SMARCA4 Degraders” (Aurigene Oncology Limited, priority 2023, published 2026).
